A word on the IC50: it is the midpoint of a concentration-inhibition curve. By inhibition is commonly meant how much of the control response was suppressed. A higher inhibition goes with a response far below the control. The term logD denotes lipophilicity at a set pH, counting ionised and neutral species. A lower logD goes with lower lipophilicity.

Each structure is given as a SMILES string. “Also recorded” adds a separate entry of the source. Where two headings read alike, the source gives them in different places.

Consider 4 molecules from patent EP3653608A1, “ISOQUINOLINE BIARYL COMPOUNDS, A PHARMACEUTICAL COMPOSITION COMPRISING THE SAME, AND USES THEREOF” (Ludwig-Maximilians-Universität München, priority 2018, dated 2020).

Series [1] is described as follows: Metabolic stability in mouse liver microsomes. The following applies: 2 uM, over 40 minutes, 37°C.
For series [2] the following is noted: human, 40 min, 2 uM.
In another series the test system is HL60 cell line. Description: Antiproliferative MTT assay, HL60 cell line. The following applies: Homo sapiens, HL-60, 48 h incubation. It counts as cell-based. Background: Tetrazolium assays rely on reduction of a dye to a coloured formazan, in cell work by metabolically active cells.
The target of the next series is T1, CYP1A2 (Homo sapiens, UniProt P05177).
T1 sequence (P05177 1-516): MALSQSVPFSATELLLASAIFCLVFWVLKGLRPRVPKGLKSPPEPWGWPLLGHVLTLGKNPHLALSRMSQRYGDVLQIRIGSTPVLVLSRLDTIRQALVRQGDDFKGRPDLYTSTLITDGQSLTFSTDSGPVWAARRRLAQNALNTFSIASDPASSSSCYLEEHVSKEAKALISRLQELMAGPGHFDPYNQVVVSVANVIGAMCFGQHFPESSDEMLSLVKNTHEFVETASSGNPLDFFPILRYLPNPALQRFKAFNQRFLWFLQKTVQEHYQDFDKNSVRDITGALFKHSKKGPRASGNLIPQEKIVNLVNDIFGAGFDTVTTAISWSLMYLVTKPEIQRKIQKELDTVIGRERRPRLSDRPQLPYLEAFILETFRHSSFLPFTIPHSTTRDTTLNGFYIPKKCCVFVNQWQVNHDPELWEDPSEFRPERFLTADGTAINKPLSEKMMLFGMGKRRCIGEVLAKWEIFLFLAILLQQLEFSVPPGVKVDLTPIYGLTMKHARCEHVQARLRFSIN
Nature of the series: Cytochrome P450 inhibition with fluorogenic substrate, CYP1A2. The following applies: CYP1A2, 10 µM, 10 minute preincubation, 25 minute reaction.

A further series deals with CYP2C19 (Homo sapiens, UniProt P33261). Description: Cytochrome P450 inhibition with fluorogenic substrate, CYP2C19. The following applies: CYP2C19, 10 µM, 10 minute preincubation, 60 min reaction.
Sequence of CYP2C19 (P33261 whole entry): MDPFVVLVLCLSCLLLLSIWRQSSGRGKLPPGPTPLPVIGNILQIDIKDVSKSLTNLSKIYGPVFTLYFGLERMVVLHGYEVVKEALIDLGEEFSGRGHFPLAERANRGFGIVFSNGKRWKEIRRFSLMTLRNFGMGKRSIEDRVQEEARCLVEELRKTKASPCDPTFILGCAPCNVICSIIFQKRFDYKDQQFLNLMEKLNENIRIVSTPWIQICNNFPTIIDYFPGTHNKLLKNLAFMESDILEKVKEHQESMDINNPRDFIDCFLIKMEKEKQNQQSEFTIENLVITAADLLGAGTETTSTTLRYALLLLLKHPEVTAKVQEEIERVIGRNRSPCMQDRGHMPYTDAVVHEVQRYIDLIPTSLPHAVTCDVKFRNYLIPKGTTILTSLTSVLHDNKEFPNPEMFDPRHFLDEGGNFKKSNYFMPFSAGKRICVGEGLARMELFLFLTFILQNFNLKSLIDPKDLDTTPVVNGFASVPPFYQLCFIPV
In a further series the test system is HeLa cell line. Nature of the series: Antiproliferative MTT assay, HeLa cell line. It counts as cell-based. The following applies: Homo sapiens.
The next series in a line: physchem. The following applies: pH 7.4.
A further series addresses CYP2D6 (Homo sapiens, UniProt P10635). Nature of the series: in vitro. The following applies: probe fluorogenic CYP substrate (not named).
In another series the target is CYP2C9 (Homo sapiens, UniProt P11712). Nature of the series: in vitro. The following applies: probe fluorogenic CYP substrate (not named).
Sequence of CYP2C9 (P11712 whole entry): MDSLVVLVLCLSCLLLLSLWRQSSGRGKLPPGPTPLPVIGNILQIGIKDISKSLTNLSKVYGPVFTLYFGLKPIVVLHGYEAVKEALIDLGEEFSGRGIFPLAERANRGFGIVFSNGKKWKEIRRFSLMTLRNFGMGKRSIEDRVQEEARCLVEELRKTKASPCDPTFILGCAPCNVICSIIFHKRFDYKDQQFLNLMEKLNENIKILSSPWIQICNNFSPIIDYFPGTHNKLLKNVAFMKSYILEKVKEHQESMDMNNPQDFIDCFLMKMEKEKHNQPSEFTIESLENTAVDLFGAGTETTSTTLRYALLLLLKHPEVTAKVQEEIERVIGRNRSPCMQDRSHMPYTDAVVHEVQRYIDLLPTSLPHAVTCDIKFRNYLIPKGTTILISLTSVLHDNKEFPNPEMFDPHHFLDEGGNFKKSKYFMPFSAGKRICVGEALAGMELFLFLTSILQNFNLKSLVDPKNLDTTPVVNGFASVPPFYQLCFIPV
The target in another series is CYP3A4 (Homo sapiens, UniProt P08684). Description: in vitro. The following applies: probe fluorogenic CYP substrate (not named).
Sequence of CYP3A4 (P08684 whole entry): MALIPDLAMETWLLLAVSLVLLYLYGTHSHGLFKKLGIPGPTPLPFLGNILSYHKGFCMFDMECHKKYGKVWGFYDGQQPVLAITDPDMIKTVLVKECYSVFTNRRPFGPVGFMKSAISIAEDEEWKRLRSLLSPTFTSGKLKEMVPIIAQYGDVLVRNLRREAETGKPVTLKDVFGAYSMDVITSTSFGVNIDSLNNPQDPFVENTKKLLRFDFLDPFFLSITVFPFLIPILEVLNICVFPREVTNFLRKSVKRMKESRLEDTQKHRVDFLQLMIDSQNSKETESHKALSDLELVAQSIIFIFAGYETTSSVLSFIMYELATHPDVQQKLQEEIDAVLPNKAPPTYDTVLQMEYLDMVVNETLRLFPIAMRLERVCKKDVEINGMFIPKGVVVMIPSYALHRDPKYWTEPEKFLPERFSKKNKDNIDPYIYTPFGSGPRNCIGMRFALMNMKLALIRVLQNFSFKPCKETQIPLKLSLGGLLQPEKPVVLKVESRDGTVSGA
For another series, the system named is microtubule network. Description: Microtubule perturbation in cellulo, immunofluorescence staining of α-tubulin. It counts as cell-based, human. The following applies: HeLa cells, 24 h incubation, A-2 in PBS, A-3 with 0.25% DMSO cosolvent.
The subject of another series is Balb/c mice. Nature of the series: Safe dosing parameters in vivo in mice.
The subject of the next series is HeLa cells. Description: Cell cycle analysis by flow cytometry, propidium iodide staining. The following applies: 24 h incubation, propidium iodide DNA staining, phosphate. Format: cell-based, human. In general terms: In flow cytometry, cells or beads pass a laser one at a time.
Series [3] concerns tubulin polymerisation dynamics. Description: Inhibition of tubulin polymerisation dynamics in cellulo, confocal video microscopy of EB3-YFP comets. Format: cell-based, human. The following applies: 0.24 µM, live HeLa cells expressing EB3-YFP. The source says:
In videos this marker manifests as bright well-defined moving "comets", and in still images as bright elongated streaks, when MTs are polymerising normally as in the control image (frame "ctrl"). […] "DMSO ctrl" denotes the cosolvent control for the A-3 images (i.e. 0.25% DMSO but no compound) while "PBS ctrl" denotes the control for the A-2 images (no compound or cosolvent applied); these controls show the expected structure of the microtubule network when no inhibition is applied.

Sequence of CYP2D6 (P10635 whole entry): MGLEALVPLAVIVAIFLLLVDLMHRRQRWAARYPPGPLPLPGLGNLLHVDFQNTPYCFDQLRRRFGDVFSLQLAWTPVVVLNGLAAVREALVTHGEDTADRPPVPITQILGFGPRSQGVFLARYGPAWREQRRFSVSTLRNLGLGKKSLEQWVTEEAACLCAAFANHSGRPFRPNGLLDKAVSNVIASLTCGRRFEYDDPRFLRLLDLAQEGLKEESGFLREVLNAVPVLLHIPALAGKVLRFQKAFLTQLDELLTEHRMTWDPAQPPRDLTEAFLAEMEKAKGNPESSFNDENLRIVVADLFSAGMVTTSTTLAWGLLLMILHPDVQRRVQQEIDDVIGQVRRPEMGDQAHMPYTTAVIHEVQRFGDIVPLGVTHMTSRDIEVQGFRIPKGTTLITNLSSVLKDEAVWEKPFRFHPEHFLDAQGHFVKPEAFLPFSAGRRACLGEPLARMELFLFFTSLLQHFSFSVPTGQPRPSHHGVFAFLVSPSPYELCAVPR

Regarding `COc1cc2c(-c3cc(OC)c(OC)c(OC)c3)nccc2cc1O` [A-1, 7-methoxy-1-(3,4,5-trimethoxyphenyl)isoquinolin-6-ol], the degradation in [1] came out at 33%; in series [2] it was 31%. The IC50 with HL60 cell line stood at 100 nM; with HeLa cell line (HeLa cell line, MTT assay, 48 h incubation, read-out: IC50), 240 nM. Besides, the inhibition result against CYP1A2 is on record as “zero”. In addition, at CYP2C19, the “apparent enhancement of activity” value was found to be 50%. In the series “physchem”, the logD turned out to be 2.18. In addition, the inhibition at 25 min, 10 µM at CYP2D6, on CYP2C9 and against CYP3A4 was 13 to 19% each time.

Molecule `COc1cc2c(-c3cc(OC)c(OC)c(OC)c3)nccc2cc1OP(=O)([O-])[O-].[Na+].[Na+]` [A-2, disodium 7-methoxy-1-(3,4,5-trimethoxyphenyl)isoquinolin-6-yl phosphate] gave an IC50 in the series with HeLa cell line (HeLa, 48 h) of 130 nM. Besides, the microtubule network perturbation result in the series on microtubule network (phosphate) is “pronounced disorganisation and destruction of the microtubule network”. For the same molecule, the tolerability result with Balb/c mice (repeated dosage 25 mg/kg i.p., 3 administrations at 48-hour intervals, Balb/c mice) is given as “tolerated compound administration”; with Balb/c mice (repeated dosage 25 mg/kg i.v., 3 administrations at 48-hour intervals, Balb/c mice), “tolerated compound administration”; in the series with Balb/c mice (single dosage 31.5 mg/kg i.p., male and female Balb/c mice), “tolerated by all mice tested”; in the series on Balb/c mice (single dosage 50 mg/kg i.v., male and female Balb/c mice), “tolerated by all mice tested”. In addition, the cell cycle effect entry in the series with HeLa cells was “extensive cell cycle arrest leading to accumulation of cells in the G2/M phase; also recorded: dose-dependently causes accumulation of cells at the G2/M phase”. Further, in series [3], the “time until the comets stopped and vanished” value was no more than 0.5 min.

In the series on HL60 cell line, `COc1ccc2ccnc(-c3cc(OC)c(OC)c(OC)c3)c2c1` [A-3, 7-methoxy-1-(3,4,5-trimethoxyphenyl)isoquinoline] showed an IC50 of 280 nM. In addition, the microtubule network perturbation entry in the series on microtubule network was “pronounced disorganisation and destruction of the microtubule network”.

For `Cn1c(=O)c2c(ncn2C)n(C)c1=O` [caffeine, reference compound], the degradation in series [2] is less than 10%.
